The text below walks through data of US20220016197A1, “ZINGIBER ZERUMBET EXTRACT FOR COMBATING DANDRUFF” (PIERRE FABRE DERMO-COSMETIQUE, priority 2018, published 2022).

This assay concerns Malassezia furfur CBS1878. In words: Anti Malassezia activity: enumeration of residual microorganisms after contact with test product. Format: cell-based. The note with it: for Enumeration of residual microorganisms after contact: product in mixture A inoculated with 1% inoculum of M. furfur at 10^7 CFU/ml; for log reduction value: versus initial number of microorganisms. Here is the method:
Indeed, M. furfur may proliferate anew if it is not completely or sufficiently removed. […] This component is generally measured by estimating the decay of microbial colonies over time.
Five formulas are tested in this test: • A compound used as reference: zinc pyrithione at 1.0% w/w in a mixture A comprising: sodium laureth sulfate 14.3%, alkyl dimethyl betaine 10.0%, decyl glucoside 3.8%, sorbitan monolaurate 2.0%, citric acid monohydrate 10% solution, qs pH=5; water qs 100; • A Zingiber zerumbet rhizome extract obtained by heptanic extraction from the dry and ground rhizome, at 2.0% w/w in mixture A; • A Zingiber zerumbet rhizome extract obtained by ethanolic extraction, at 2.0% w/w in mixture A; • A Zingiber zerumbet rhizome extract obtained by supercritical CO2 in a water-soluble excipient (butylene glycol) at 3.0% w/w in mixture A. This is a commercial material called Legance®, sold by the firm Sederma. The INCI name of this material is: Butylene glycol-Zingiber Zerumbet Extract.
An inoculation of 20 g of test product is carried out with 1% inoculum of Malassezia furfur titrating at 10^7 CFU/ml. After a determined contact time, 1 g of product is taken and a 1/10 dilution is carried out in the neutralizing diluent. Successive dilutions at 1/10 up to 1/1000 dilution are carried out in the diluent. 1 ml is filtered on a 0.45 μm membrane in ester and cellulose acetate in the presence of 50 ml of sterile demineralized water (SDW), then two rinses are carried out with 50 ml of SDW.
The chosen contact times are 1 h, 2 h, 5 h and 8 hours. The neutralizing diluent is TSB+10% polysorbate 80, the diluent is tryptone-salt. The rinsing liquid is sterile demineralized water.

For the substance zinc pyrithione [Compound 1], the “activity on Malassezia furfur (in words)” value was “shows activity on Malassezia furfur from 1 hour of contact”. Also, the “reduction in the number of microorganisms” value (8 hours of contact) is reported as “exceeds 3 log”. Moreover, under “contact time 1 hour”, the “Enumeration of residual microorganisms after contact” value is on record as 7.2 × 10^4 CFU/g and the log reduction value is given as 0.23. For the setting “contact time 2 hours”, the “Enumeration of residual microorganisms after contact” value is listed as 4.8 × 10^4 CFU/g and the log reduction value was 0.40. Moreover, where the note is “contact time 5 hours”, the “Enumeration of residual microorganisms after contact” value is 4.9 × 10^3 CFU/g and the log reduction value is recorded as 1.39. Under “contact time 8 hours”, the “Enumeration of residual microorganisms after contact” value is <1.0 × 10^2 CFU/g and the log reduction value is above 3.08.
